From PMC7972453, “The allosteric modulation of complement C5 by knob domain peptides” (eLife, 2021)
Bridges are numbered along the chain shown (N, C = ends). Where no end group is shown, it is not given here.

Assays:
[1] = system: classical pathway mediated C5a release (complement C5); assay: Inhibition of classical pathway mediated C5a release (ELISA); type: biochemical, human; conditions: n=3 (K8: n=5), ND* = Not detected
Experimental: For the C5b ELISA, assays were run using the CP and AP Complement functional ELISA kits (Svar Life Science, Malmö, Sweden). For sample preparation, serum was diluted as per the respective protocol for the CP and AP assays. Serial dilutions of peptides were prepared and allowed to incubate with serum for 15 min at room temperature prior to plating.
For the C5a ELISA, assays were run using the Complement C5a Human ELISA Kit (Invitrogen, Renfrew, UK). For sample preparation, at the end of the 37°C incubation of the serum/peptide samples on the C5b ELISA plate, 50 µL of the diluted, activated serum was transferred to a C5a ELISA plate containing 50 µL/well of assay buffer. All subsequent experimental steps were performed as described in the protocol.
Table 1.3. Inhibition of classical pathway mediated C5a release.
Data from n=3 independent titrations, unless otherwise stated

[2] = system: classical pathway C5b deposition (complement C5); assay: Classical pathway C5b deposition ELISA; type: biochemical, human; conditions: n=3 (K8: n=6), ND* = Not detected
Description: Figure 1. Functional modulation of C5 via knob domain peptides. […] Following activation of C1q via antibody Fc, C4 and C2 are cleaved and form C4bC2a (the CP C3 convertase) which cleaves C3 into C3a (not shown) and C3b. At high C3b concentrations, C4bC2aC3b (the CP […]) forms and cleaves C5 into C5a and C5b. C5b associates with C6 and forms the membrane attack complex (MAC) with C7, C8, and multiple copies of C9. […] In the presence of factor B and factor D, C3bBb (the AP C3 convertase) generates additional C3b, prompting formation of C3bBbC3b (the AP C5 convertase), which cleaves C5 into C5a and C5b, driving MAC formation. CP-driven ELISAs (C) and AP-driven ELISAs (D) are shown. For both pathways, the inhibition of C3d (the surface-associated domain of C3b, which is upstream of C5 inhibition), C5a release, and C5b neo-epitope formation and C9 deposition were tracked within the MAC. […] For the AP assays, 5% serum (v/v) gives a putative C5 concentration of 20 nM. For the CP assays, 1% serum (v/v) gives a putative C5 concentration of 4 nM, based on a reported C5 serum concentration of 397 nM/75 µg/mL ([Sjöholm, 1975]).
For the C5b ELISA, assays were run using the CP and AP Complement functional ELISA kits (Svar Life Science, Malmö, Sweden). For sample preparation, serum was diluted as per the respective protocol for the CP and AP assays. […]

human C5b = molecular target: T1, human C5b (Homo sapiens, UniProt P01031); assay: SPR single-cycle kinetics, binding to C5b
T1 construct: Upon cleavage of C5a, the remaining domains of the α-chain undergo a substantial conformational change; C5a was removed using a spin column with 30 kDa cut-off; tissue TCS Biosciences (serum); host or cells: human serum; C5 cleaved in house with CVF, factor B and factor D
T1 sequence (P01031 752-1676 limits assumed): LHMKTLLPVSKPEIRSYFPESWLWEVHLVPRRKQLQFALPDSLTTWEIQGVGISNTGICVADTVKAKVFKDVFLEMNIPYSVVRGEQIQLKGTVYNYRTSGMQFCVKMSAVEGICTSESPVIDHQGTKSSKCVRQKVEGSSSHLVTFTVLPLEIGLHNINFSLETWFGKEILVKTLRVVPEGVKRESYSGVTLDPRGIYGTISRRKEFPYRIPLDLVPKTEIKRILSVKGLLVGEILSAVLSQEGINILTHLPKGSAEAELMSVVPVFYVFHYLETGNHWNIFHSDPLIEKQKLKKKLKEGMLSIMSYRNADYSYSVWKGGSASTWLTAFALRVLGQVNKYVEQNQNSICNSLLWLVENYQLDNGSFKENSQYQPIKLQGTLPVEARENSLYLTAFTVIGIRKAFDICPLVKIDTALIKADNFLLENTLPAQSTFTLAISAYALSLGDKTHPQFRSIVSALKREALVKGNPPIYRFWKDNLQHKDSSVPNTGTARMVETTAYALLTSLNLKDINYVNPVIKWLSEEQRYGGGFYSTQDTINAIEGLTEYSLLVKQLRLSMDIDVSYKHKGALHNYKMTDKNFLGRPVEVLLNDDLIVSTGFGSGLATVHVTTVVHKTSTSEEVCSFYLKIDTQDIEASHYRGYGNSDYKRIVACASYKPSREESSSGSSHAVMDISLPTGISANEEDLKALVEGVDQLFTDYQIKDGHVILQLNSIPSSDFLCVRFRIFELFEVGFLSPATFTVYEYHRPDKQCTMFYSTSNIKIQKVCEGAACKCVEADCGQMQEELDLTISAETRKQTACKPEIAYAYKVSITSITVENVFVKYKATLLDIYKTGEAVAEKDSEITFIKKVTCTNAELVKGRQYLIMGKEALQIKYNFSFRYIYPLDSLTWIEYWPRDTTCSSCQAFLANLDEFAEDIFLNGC
T1 sequence (P01031 19-673 limits assumed): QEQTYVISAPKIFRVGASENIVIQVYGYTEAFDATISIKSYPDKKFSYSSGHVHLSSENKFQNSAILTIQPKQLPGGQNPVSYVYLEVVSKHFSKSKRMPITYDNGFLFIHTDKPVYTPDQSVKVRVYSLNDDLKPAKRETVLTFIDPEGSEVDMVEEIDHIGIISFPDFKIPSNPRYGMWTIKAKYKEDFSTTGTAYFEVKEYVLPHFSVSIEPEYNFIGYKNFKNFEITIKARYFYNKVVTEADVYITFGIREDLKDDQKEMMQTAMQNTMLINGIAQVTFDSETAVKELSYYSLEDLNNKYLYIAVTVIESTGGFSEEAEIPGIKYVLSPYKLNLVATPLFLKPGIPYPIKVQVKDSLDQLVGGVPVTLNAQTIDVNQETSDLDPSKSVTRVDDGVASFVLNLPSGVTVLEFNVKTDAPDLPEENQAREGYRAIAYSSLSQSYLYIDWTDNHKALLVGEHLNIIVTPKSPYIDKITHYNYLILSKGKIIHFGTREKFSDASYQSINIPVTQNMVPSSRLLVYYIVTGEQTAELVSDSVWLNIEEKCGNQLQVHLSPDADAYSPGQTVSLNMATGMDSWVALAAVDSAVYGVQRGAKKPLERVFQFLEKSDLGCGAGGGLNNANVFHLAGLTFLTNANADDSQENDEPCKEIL
Experimental: Human C5 was affinity purified using an E141A, H164A OmCI column ([Macpherson et al., 2018]). Briefly, human serum (TCS Biosciences, Botolph Claydon, UK) was diluted 1:1 (v/v) with phosphate buffered saline (PBS), 20 mM ethylenediaminetetraacetic acid (EDTA), and applied to a 5 mL Hi-Trap NHS column (GE Healthcare, Amersham UK), which contained 20 mg of E141A H164A OmCI protein, at a rate of 1 mL/min. The column was washed with 5× column volumes (CV) of PBS, C5 was then eluted using 2 M MgCl2 and immediately dialysed into PBS. C5b was prepared from human C5 by incubating C5 with CVF, factor B and factor D, at a 1:10 molar ratio, as previously described ([Jore et al., 2016]). C5a was removed using a spin column with 30 kDa cut-off (Thermo Fisher Scientific, Horsham, UK).
On a Biacore 8K (GE Healthcare, Amersham, UK), human C5b was immobilised on a CM5 chip (GE Healthcare, Amersham, UK). Flow cells were activated using a standard immobilisation protocol: EDC/NHS was mixed at 1:1 ratio (flow rate, 10 µL/min; contact time, 30 s). C5b, at 1 µg/mL, or C5b-6 (Complement Technologies, Tyler, TX), at 2 µg/mL, in pH 4.5 sodium acetate buffer, were immobilised on flow cell two only (flow rate, 10 µL/min; contact time, 420 s). Finally, ethanolamine was applied to both flow cells (flow rate, 10 µL/min; contact time, 420 s). A final immobilisation level of 500–700 RUs was obtained for C5b and 1000–1150 RUs were obtained for C5b-6. Single-cycle kinetics were measured using a seven-point, threefold serial dilution (spanning a range of 1 µM to 1.4 nM) in HBS-EP buffer (GE Healthcare, Amersham, UK). A high flow rate of 40 µL/min was used, with a contact time of 300 s and a dissociation time of 2700 s. Binding to the reference surface was subtracted, and the data were fitted to a single-site binding model using Biacore evaluation software. All sensorgrams were inspected for evidence of mass transport limitation using the flow rate-independent component of the mass transfer constant (tc).
Table 4.1. SPR single-cycle kinetics of knob domains binding to human C5b.

SVCPDGFDWGYGCAAGSSRFCTRHDWCCYDERADSHTYGFCTGNRVENLYFQ (disulfide 3-28, 13-21, 27-41) [K8]
Average Emax ([1]; CP C5a release): 57.7% | IC50 ([1]; CP, C5a Human ELISA kit (Invitrogen) on activated serum from C5b ELISA plate, read-out: Geomean IC50): 9.9 nM | Average Emax ([2]; CP C5b ELISA, preincubated 15 min RT): 68.2% | IC50 ([2]; CP functional ELISA kit (Svar), peptide preincubated with human serum 15 min RT, CP 1% serum, putative 4 nM C5, read-out: Geomean IC50): 9.3 nM | binding to C5b (in words) (human C5b; SPR single-cycle kinetics): did not bind C5b | Stoichiometric ratio (human C5b; replicate n=1): 0.1 | comment (binding) (human C5b; replicate n=1): Non-binding | Stoichiometric ratio (human C5b; replicate n=2): 0.1 | comment (binding) (human C5b; replicate n=2): Non-binding | Stoichiometric ratio (human C5b; replicate n=3): 0.2 | comment (binding) (human C5b; replicate n=3): Non-binding | Mean stoichiometric ratio (human C5b; summary of n=3): 0.1 | comment (binding) (human C5b; summary of n=3): Non-binding
